Test results reported in US12544356B2, “Combination of a chromene compound and a second active agent” (EUCLISES PHARMACEUTICALS, INC., priority 2016, dated 2026).

What was measured:
prostaglandin E2 (PGE2) = test: CT26 tumoral PGE-2 (Example 6); format: in vivo, Female Harlan Balb/c mice (BALB/cAnNHsd)
Experimental: CT26 murine colon carcinoma cells were prepared as in Example 2. Female Harlan Balb/c mice (BALB/cAnNHsd) were inoculated with 5×10^5 CT26 cells suspended in PBS (200 μL) subcutaneously high in the axilla (just under the fore limb). All mice were sorted into study groups based on caliper measurement estimation of tumor burden on Day 8 when the mean tumor burden for all animals was approximately 79 mm^3 (range of group means, 75-83 mm^3).

[1] = system: intratumoral immune cells (CT26 tumors); test: Intratumoral immune response by flow cytometry (Example 4); format: in vivo, Female Envigo BALB/c (BALB/cAnNHsd) mice
Experimental: CT26 murine colon carcinoma cells were prepared as in Example 2. Female Envigo BALB/c (BALB/cAnNHsd) were inoculated with 5×10^5 CT26 cells suspended in PBS (200 μL) subcutaneously high in the axilla (just under the fore limb). […] The antibodies were administered via i.p. injection on days 3, 6, 9, 12, and 16 following inoculation. Compound A01 was given per oral daily. The mice were euthanized two hours following final dose on Day 16 and samples were prepared for testing.
Following euthanization, tumors were removed and processed to recover live cells. Red blood cells were removed. The cells were stained for surface markers and, where applicable, permeabilized for intracellular staining. The cells were washed and suspended in flow cytometry staining buffer and analyzed via flow cytometry.
The treatment had minimal effect on the relative number of Tregs (CD25^+Foxp3^+) and MDSCs (CD11b^+Ly6G^+) (as a percentage of total CD45^+ cells). […] FIG. 3 correlates CD8^+ cell percentages to tumor regression.

PGE2 = test: Intratumoral concentration of PGE2 in HT-29 tumors (Example 1); format: in vivo, CB17SCID male mice; settings: HT-29 tumor, day 24
Experimental: (§1) 48 CB17SCID male mice were implanted with 2.5×10^6 HT29 cells. Growth of the tumor was calculated for each animal using a caliper and the equation: V=π×ab^2/6.
(§2) Mouse weight and tumor volume measurements were taken on days 0, 3, 6, 9, 12, 15, 18, 21, and 22 following randomization.

[2] = Plasma concentration of Compound A01 and erlotinib (Example 1); format: in vivo, CB17SCID male mice; settings: for concentration at 2 h / concentration at 6 h: male, CB17SCID, mouse, plasma; for concentration at 2 h: 2 hours post dosing; for concentration at 6 h: 6 hours post dosing
Experimental: as §1, §2

[3] = system: HT-29 xenograft colon carcinoma model; test: HT-29 xenograft tumor volume, Compound A01 vs celecoxib (Example 5); format: in vivo, CB17SCID mice
Experimental: HT-29 cells were prepared and implanted by standard methods using the same procedure as Example 1.
42 CB17SCID mice were implanted with 2.5×10^6 HT-29 cells.
Mouse weight and tumor volume measurements were taken on days 0, 3, 6, 9, 12, 15, 18, 21, and 22 following randomization. After 22 days dosing, the blood from each animal was collected at 2 hours and 6 hours post dose.

[4] = of total CD8+CD4− T cells, Day 16, doses 10 mg/kg
[5] = percentage of total CD45+ cells, Day 16, doses 10 mg/kg

## [2H]C([2H])([2H])c1cc(Br)cc2c1O[C@H](C(F)(F)F)C(C(=O)O)=C2 [Compound A01, (S)-6-bromo-8-trideuteromethyl-2-(trifluoromethyl)-2H-chromene-3-carboxylic acid]
Prostaglandin E2 (PGE2); 0.3 mg/kg (Group 6)
  Mean PGE-2 Concentration (CT26 tumoral): 670 ng/g
Prostaglandin E2 (PGE2); 1 mg/kg (Group 5)
  Mean PGE-2 Concentration (CT26 tumoral): 278 ng/g
Prostaglandin E2 (PGE2); 30 mg/kg (Group 2)
  Mean PGE-2 Concentration (CT26 tumoral): 150 ng/g
[1]; [4]
  Ki67+ CD8+ T cells: 13.75%
  PD-1+ CD8+ T cells: 84.36%
[1]; [5]
  CD4+ CD8− intratumoral T cells: 1.01%
  CD8+ CD4− intratumoral T cells: 6.32%
  MDSCs (CD11b+Ly6G+): 12.09%
  Tregs (CD25+Foxp3+): 2.29%
[1]; summary of Table 12
  level of Ki67+CD8+ T cells (of total CD8+CD4− T cells), in words: reduced
  level of PD-1+CD8+ T cells (of total CD8+CD4− T cells), in words: reduced
  percentage of intratumoral CD4+CD8− T cells (of total CD45+ cells), in words: increased
  percentage of intratumoral CD8+CD4− T cells (of total CD45+ cells), in words: increased
PGE2; A01 1 mg/kg
  Intratumoral concentration of PGE2 (mean ± SD): 14.01 ± 30.3 µg/g
PGE2; A01 10 mg/kg
  Intratumoral concentration of PGE2 (mean ± SD): 0 µg/g
[2]; 2 and 6 hours post dosing
  effect of oral dosing of erlotinib on plasma concentration of Compound A01: influenced
[2]; A01 1 mg/kg oral
  concentration at 2 h: 3610 ± 1350 ng/mL
  concentration at 6 h: 2250 ± 529 ng/mL
[2]; A01 10 mg/kg oral
  concentration at 2 h: 28400 ± 6020 ng/mL
  concentration at 6 h: 19100 ± 5170 ng/mL
[3]; Day 0, 0.1 mg/kg oral daily
  Tumor Volume: 65.8 mm^3
[3]; Day 0, 0.3 mg/kg oral daily
  Tumor Volume: 70.9 mm^3
[3]; Day 0, 1 mg/kg oral daily
  Tumor Volume: 68.5 mm^3
[3]; Day 0, 3 mg/kg oral daily
  Tumor Volume: 68.4 mm^3
[3]; Day 0, 10 mg/kg oral daily
  Tumor Volume: 69.0 mm^3
[3]; Day 3, 0.1 mg/kg oral daily
  Tumor Volume: 88.5 mm^3
[3]; Day 3, 0.3 mg/kg oral daily
  Tumor Volume: 83.8 mm^3
[3]; Day 3, 1 mg/kg oral daily
  Tumor Volume: 85.2 mm^3
[3]; Day 3, 3 mg/kg oral daily
  Tumor Volume: 80.3 mm^3
[3]; Day 3, 10 mg/kg oral daily
  Tumor Volume: 83.9 mm^3
[3]; Day 6, 0.1 mg/kg oral daily
  Tumor Volume: 165.0 mm^3
[3]; Day 6, 0.3 mg/kg oral daily
  Tumor Volume: 132.9 mm^3
[3]; Day 6, 1 mg/kg oral daily
  Tumor Volume: 152.8 mm^3
[3]; Day 6, 3 mg/kg oral daily
  Tumor Volume: 121.9 mm^3
[3]; Day 6, 10 mg/kg oral daily
  Tumor Volume: 107.7 mm^3
[3]; Day 9, 0.1 mg/kg oral daily
  Tumor Volume: 283.1 mm^3
[3]; Day 9, 0.3 mg/kg oral daily
  Tumor Volume: 231.5 mm^3
[3]; Day 9, 1 mg/kg oral daily
  Tumor Volume: 239.8 mm^3
[3]; Day 9, 3 mg/kg oral daily
  Tumor Volume: 190.1 mm^3
[3]; Day 9, 10 mg/kg oral daily
  Tumor Volume: 176.0 mm^3
[3]; Day 12, 0.1 mg/kg oral daily
  Tumor Volume: 360.3 mm^3
[3]; Day 12, 0.3 mg/kg oral daily
  Tumor Volume: 298.2 mm^3
[3]; Day 12, 1 mg/kg oral daily
  Tumor Volume: 311.1 mm^3
[3]; Day 12, 3 mg/kg oral daily
  Tumor Volume: 279.5 mm^3
[3]; Day 12, 10 mg/kg oral daily
  Tumor Volume: 257.7 mm^3
[3]; Day 15, 0.1 mg/kg oral daily
  Tumor Volume: 416.8 mm^3
[3]; Day 15, 0.3 mg/kg oral daily
  Tumor Volume: 350.7 mm^3
[3]; Day 15, 1 mg/kg oral daily
  Tumor Volume: 364.8 mm^3
[3]; Day 15, 3 mg/kg oral daily
  Tumor Volume: 329.1 mm^3
[3]; Day 15, 10 mg/kg oral daily
  Tumor Volume: 332.0 mm^3
[3]; Day 18, 0.1 mg/kg oral daily
  Tumor Volume: 640.9 mm^3
[3]; Day 18, 0.3 mg/kg oral daily
  Tumor Volume: 530.8 mm^3
[3]; Day 18, 1 mg/kg oral daily
  Tumor Volume: 532.6 mm^3
[3]; Day 18, 3 mg/kg oral daily
  Tumor Volume: 445.1 mm^3
[3]; Day 18, 10 mg/kg oral daily
  Tumor Volume: 357.3 mm^3
[3]; Day 21, 0.1 mg/kg oral daily
  Tumor Volume: 900.4 mm^3
[3]; Day 21, 0.3 mg/kg oral daily
  Tumor Volume: 723.5 mm^3
[3]; Day 21, 1 mg/kg oral daily
  Tumor Volume: 730.9 mm^3
[3]; Day 21, 3 mg/kg oral daily
  Tumor Volume: 622.8 mm^3
[3]; Day 21, 10 mg/kg oral daily
  Tumor Volume: 453.6 mm^3
[3]; Day 22, 0.1 mg/kg oral daily
  Tumor Volume: 987.7 mm^3
[3]; Day 22, 0.3 mg/kg oral daily
  Tumor Volume: 753.5 mm^3
[3]; Day 22, 1 mg/kg oral daily
  Tumor Volume: 772.1 mm^3
[3]; Day 22, 3 mg/kg oral daily
  Tumor Volume: 699.4 mm^3
[3]; Day 22, 10 mg/kg oral daily
  Tumor Volume: 561.8 mm^3
